The nature of series [1]: Intrinsic dissolution in water at 37° C. (Woods apparatus pellet, UV absorbance at 343 nm). The class given is physicochemical. The method, then: Intrinsic Dissolution: Pellets of approximately 200 mg were pressed at 3000 lbs. for 1 minute in a standard Woods apparatus, with a surface area of 0.5 cm^2. One pellet was tested for each material. The samples were rotated in a VanKel dissolution apparatus, with automated sampling, at 100 RPM in 900 mL of water at 37° C. Aliquots were taken every two minutes and not filtered prior to analysis. […] A wavelength of approximately 343 nm was chosen for the cocrystal to avoid potential interference from maleic acid. To determine the rate of dissolution of each material, a plot was generated of the absorbance over time for each material. From this plot, a linear region was chosen from the initial dissolution period of each material. Concentrations were plotted versus time for the regions. A straight-line was fit to the data for each material. The slope of these lines provides the dissolution rate for each of the materials, expressed as [μg/mL]/min. The rates were not normalized for the surface area of the pellet. Aliquots of the dissolution medium were removed manually at the end of the run and analyzed by UV spectrophotometry, and the remainder of the pellets were recovered for XRPD analysis. FIG. 2-3 depicts the UV absorbance (at 343 nm) vs. time curves for the intrinsic dissolution experiment on flupirtine maleate in water at 37° C. […] Intrinsic dissolution experiments were performed under sink conditions in water at 37° C. […] The intrinsic dissolution rate of the 1:1 flupirtine hydrochloride maleic acid cocrystal was ˜0.21 μg/mL/min. There appeared to be a slow chemical change occurring in the dissolution medium. The solid recovered from the intrinsic dissolution experiment was analyzed by XRPD and determined to correspond to a mixture of the flupirtine hydrochloride maleic acid cocrystal and a small amount of an unidentified material.

For series [2] the following is noted: cited from earlier work.
The conditions of series [3]: in man; cited from earlier work.
[4] abbreviates: water, 37° C., 100 RPM, 900 mL, 0.5 cm^2 pellet, not normalized for surface area.

Where a name gives a salt, the structure may show the parent alone.

Take `CCOC(=O)Nc1ccc(NCc2ccc(F)cc2)nc1N.Cl.O=C(O)C=CC(=O)O`: the intrinsic dissolution rate is roughly 0.21 µg/mL/min in series [1] (sink conditions in water at 37° C.) and 0.21 [μg/mL]/min in series [1] (setting [4]).

For the compound `CCOC(=O)Nc1ccc(NCc2ccc(F)cc2)nc1N` [flupirtine maleate], the solubility in water entry in series [2] is recorded as “insoluble in water”. In addition, in series [1] (setting [4]), the intrinsic dissolution rate was 0.088 [μg/mL]/min. For the same compound, the “aqueous solubility as indicated by low absorbance values in the intrinsic dissolution experiment” value in series [1] (water, 37° C., UV absorbance at 343 nm) was “poor aqueous solubility”.

On to `CCOC(=O)Nc1ccc(NCc2ccc(F)cc2)nc1N` [flupirtine, 2-amino-3-carbethoxyamino-6-(p-fluorobenzylamino)pyridine], for which the “time to maximum plasma concentration (tmax)” value in series [3] is 2 h.
